In patent US8680339B2, “Herbicides” (Syngenta Limited, priority 2009, dated 2014):

Key:
Type in all cases: in vivo
[1] = system: Echinochloa crus-galli (ECHCG); assay: Post-emergence herbicidal activity, glasshouse pot test; conditions: rate 250 g/ha, evaluated after 13 days, 100=total damage to plant, 0=no damage to plant; for pest or weed control at 250 g/ha: Echinochloa crus-galli, 312 h
Procedure: (§1) Seeds of a variety of test species were sown in standard soil in pots. After cultivation for one day (pre-emergence) or after 8 days cultivation (post-emergence) under controlled conditions in a glasshouse (at 24/16° C., day/night; 14 hours light; 65% humidity), the plants were sprayed with an aqueous spray solution derived from the formulation of the technical active ingredient in acetone/water (50:50) solution containing 0.5% Tween 20 (polyoxyethelyene sorbitan monolaurate, CAS RN 9005-64-5). The test plants were then grown in a glasshouse under controlled conditions in a glasshouse (at 24/16° C., day/night; 14 hours light; 65% humidity) and watered twice daily. After 13 days for pre and post-emergence, the test was evaluated (100=total damage to plant; 0=no damage to plant). Test Plants: Lolium perenne (LOLPE), Alopecurus myosuroides (ALOMY), Echinochloa crus-galli (ECHCG), and Avena fatua (AVEFA). Post-Emergence Activity

[2] = system: Lolium perenne (LOLPE); assay: as above; conditions: rate 250 g/ha, evaluated after 13 days, 100=total damage to plant, 0=no damage to plant; for pest or weed control at 250 g/ha: Lolium perenne, 312 h
Procedure: as §1

[3] = system: Avena fatua (AVEFA); assay: as above; conditions: rate 250 g/ha, evaluated after 13 days, 100=total damage to plant, 0=no damage to plant; for pest or weed control at 250 g/ha: Avena fatua, 312 h
Procedure: as §1

[4] = system: Alopecurus myosuroides (ALOMY); assay: as above; conditions: rate 250 g/ha, evaluated after 13 days, 100=total damage to plant, 0=no damage to plant; for pest or weed control at 250 g/ha: Alopecurus myosuroides, 312 h
Procedure: as §1

[5] = system: Echinochloa crus-galli (ECHCG); assay: Pre-emergence herbicidal activity, glasshouse pot test; conditions: rate 250 g/ha, evaluated after 13 days, 100=total damage to plant, 0=no damage to plant; for pest or weed control at 250 g/ha: Echinochloa crus-galli, 312 h
Procedure: as §1, with “Pre-Emergence” for “Post-Emergence”

[6] = system: Lolium perenne (LOLPE); assay: as above; conditions: rate 250 g/ha, evaluated after 13 days, 100=total damage to plant, 0=no damage to plant; for pest or weed control at 250 g/ha: Lolium perenne, 312 h
Procedure: as §1, with “Pre-Emergence” for “Post-Emergence”

[7] = system: Avena fatua (AVEFA); assay: as above; conditions: rate 250 g/ha, evaluated after 13 days, 100=total damage to plant, 0=no damage to plant; for pest or weed control at 250 g/ha: Avena fatua, 312 h
Procedure: as §1, with “Pre-Emergence” for “Post-Emergence”

[8] = system: Alopecurus myosuroides (ALOMY); assay: as above; conditions: rate 250 g/ha, evaluated after 13 days, 100=total damage to plant, 0=no damage to plant; for pest or weed control at 250 g/ha: Alopecurus myosuroides, 312 h
Procedure: as §1, with “Pre-Emergence” for “Post-Emergence”

Row | SMILES | damage to plant ECHCG [1] | damage to plant LOLPE [2] | damage to plant AVEFA [3] | damage to plant ALOMY [4] | damage to plant ECHCG [5] | damage to plant LOLPE [6] | damage to plant AVEFA [7] | damage to plant ALOMY [8] | pest or weed control at 250 g/ha [1] | pest or weed control at 250 g/ha [2] | pest or weed control at 250 g/ha [3] | pest or weed control at 250 g/ha [4] | pest or weed control at 250 g/ha [5] | pest or weed control at 250 g/ha [6] | pest or weed control at 250 g/ha [7] | pest or weed control at 250 g/ha [8]
1 | Cc1cc(Oc2ncc(Cl)cc2F)cc(C)c1C1=C(O)[C@H]2[C@@H](C1=O)[C@@H]1CC[C@H]2O1 [Compound A-25] | 70 | 80 | 70 | 90 | 70 | 80 | 30 | 40 | – | – | – | – | – | – | – | –
2 | Cc1cc(Oc2cccc(F)c2F)cc(C)c1C1=C(O)[C@H]2[C@@H](C1=O)[C@@H]1CC[C@H]2O1 [Compound A-8] | – | – | – | – | – | – | – | – | 90% | 80% | 40% | 80% | 40% | 30% | 0% | 40%
3 | Cc1cc(Oc2ccc(F)cc2)cc(C)c1C1=C(OC(=O)C(C)(C)C)[C@H]2[C@@H](C1=O)[C@@H]1CC[C@H]2O1 [Compound P-4] | – | – | – | – | – | – | – | – | 90% | 70% | 60% | 90% | 100% | 90% | 70% | 80%
4 | Cc1cc(Oc2ccc(Cl)cc2F)cc(C)c1C1=C(O)[C@H]2[C@@H](C1=O)[C@@H]1CC[C@H]2O1 [Compound A-7] | – | – | – | – | – | – | – | – | 100% | 100% | 90% | 100% | 100% | 90% | 90% | 70%
5 | Cc1cc(Oc2ccc(Cl)cc2)cc(C)c1C1=C(OC(=O)C(C)(C)C)[C@H]2[C@@H](C1=O)[C@@H]1CC[C@H]2O1 [Compound P-3] | – | – | – | – | – | – | – | – | 100% | 100% | 100% | 90% | 100% | 90% | 90% | 100%
6 | Cc1cc(Oc2cnc3cc(Cl)ccc3n2)cc(C)c1C1=C(O)[C@H]2[C@H]3CC[C@H](C3)[C@H]2C1=O [Compound A-16] | – | – | – | – | – | – | – | – | 60% | 0% | 0% | 30% | 10% | 0% | 0% | 0%
7 | Cc1cc(Oc2cnc3cc(Cl)ccc3n2)cc(C)c1C1=C(O)[C@H]2[C@@H](C1=O)[C@@H]1CC[C@H]2O1 [Compound A-23] | 70 | 50 | 80 | 60 | 90 | 90 | 20 | 30 | – | – | – | – | – | – | – | –
8 | CCc1cc(Oc2ccc(Cl)cc2)ccc1C1=C(O)CCC1=O [Compound A-32, 2-[4-(4-chlorophenoxy)-2-ethylphenyl]cyclopentane-1,3-dione] | – | – | – | – | – | – | – | – | 0% | 0% | 0% | 0% | 50% | 10% | 0% | 0%
9 | Cc1cc(Oc2ccc(Cl)cc2)cc(C)c1C1=C(O)[C@H]2[C@@H](C1=O)[C@@H]1CC[C@H]2O1 [Compound A-4] | – | – | – | – | – | – | – | – | 100% | 100% | 90% | 100% | 90% | 80% | 70% | 100%
10 | Cc1cc(Oc2ncc(Cl)cc2F)cc(C)c1C1=C(O)[C@H]2[C@H]3CC[C@H](C3)[C@H]2C1=O [Compound A-18] | – | – | – | – | – | – | – | – | 70% | 10% | 30% | 30% | 40% | 0% | 0% | 10%
11 | CCc1cc(Oc2ccc3cc(Cl)ccc3n2)ccc1C1=C(O)CCC1=O [Compound A-35] | – | – | – | – | – | – | – | – | 80% | 20% | 0% | 0% | 70% | 0% | 0% | 0%
12 | Cc1cc(Oc2ncc(Cl)cc2F)cc(C)c1C1=C(O)[C@H]2[C@@H](C1=O)[C@@H]1CC[C@H]2O1 [Compound A-24] | – | – | – | – | – | – | 60 | 100 | 90% | 90% | 80% | 80% | 70% | 80% | – | –
13 | Cc1cc(Oc2ncc(Cl)cc2F)cc(C)c1C1=C(O)C2C(C1=O)[C@H]1CC[C@@H]2CC1 (stereo partly drawn) [Compound A-20, 2-[4-(5-chloro-3-fluoropyridin-2-yloxy)-2,6-dimethylphenyl]hexahydro-4,7-ethanoindene-1,3-dione] | – | – | – | – | – | – | – | – | 70% | 30% | 20% | 50% | 60% | 20% | 0% | 40%
14 | Cc1cc(Oc2cnc3cc(Cl)ccc3n2)cc(C)c1C1=C(O)[C@H]2[C@@H](C1=O)[C@@H]1CC[C@H]2O1 [Compound A-22] | – | 100 | – | 100 | – | – | 50 | – | 90% | – | 100% | – | 90% | 80% | – | 50%
15 | Cc1cc(Oc2ccccc2Cl)cc(C)c1C1=C(O)[C@H]2[C@@H](C1=O)[C@@H]1CC[C@H]2O1 [Compound A-10] | – | – | – | – | – | – | – | – | 40% | 30% | 0% | 10% | 10% | 20% | 0% | 10%
16 | Cc1cc(Oc2ccccc2F)cc(C)c1C1=C(O)[C@H]2[C@@H](C1=O)[C@@H]1CC[C@H]2O1 [Compound A-5] | – | – | – | – | – | – | – | – | 90% | 70% | 50% | 60% | 60% | 50% | 30% | 40%
17 | Cc1cc(Oc2cnc3cc(Cl)ccc3n2)cc(C)c1C1=C(O)C2C(C1=O)[C@H]1CC[C@@H]2CC1 (stereo partly drawn) [Compound A-21] | – | – | – | – | – | – | – | – | 70% | 0% | 0% | 10% | 50% | 30% | 0% | 10%
18 | Cc1cc(Oc2ccc(F)cc2F)cc(C)c1C1=C(O)[C@H]2[C@@H](C1=O)[C@@H]1CC[C@H]2O1 [Compound A-6] | – | – | – | – | – | – | – | – | 90% | 70% | 70% | 90% | 70% | 80% | 30% | 70%
